Values of other authors, collected in patent publication US7001904B1, “Guanidine derivatives quinazoline and quinoline for use in the treatment of autoimmune diseases” (AstraZeneca AB, priority 2000, dated 2006).

Target: EGF RTK (Homo sapiens, UniProt P00533)
Conditions: Bioorganic & Medicinal Chemistry Letters, 1997, 7, 2723–2728

Sequence of EGF RTK (P00533 25-1210): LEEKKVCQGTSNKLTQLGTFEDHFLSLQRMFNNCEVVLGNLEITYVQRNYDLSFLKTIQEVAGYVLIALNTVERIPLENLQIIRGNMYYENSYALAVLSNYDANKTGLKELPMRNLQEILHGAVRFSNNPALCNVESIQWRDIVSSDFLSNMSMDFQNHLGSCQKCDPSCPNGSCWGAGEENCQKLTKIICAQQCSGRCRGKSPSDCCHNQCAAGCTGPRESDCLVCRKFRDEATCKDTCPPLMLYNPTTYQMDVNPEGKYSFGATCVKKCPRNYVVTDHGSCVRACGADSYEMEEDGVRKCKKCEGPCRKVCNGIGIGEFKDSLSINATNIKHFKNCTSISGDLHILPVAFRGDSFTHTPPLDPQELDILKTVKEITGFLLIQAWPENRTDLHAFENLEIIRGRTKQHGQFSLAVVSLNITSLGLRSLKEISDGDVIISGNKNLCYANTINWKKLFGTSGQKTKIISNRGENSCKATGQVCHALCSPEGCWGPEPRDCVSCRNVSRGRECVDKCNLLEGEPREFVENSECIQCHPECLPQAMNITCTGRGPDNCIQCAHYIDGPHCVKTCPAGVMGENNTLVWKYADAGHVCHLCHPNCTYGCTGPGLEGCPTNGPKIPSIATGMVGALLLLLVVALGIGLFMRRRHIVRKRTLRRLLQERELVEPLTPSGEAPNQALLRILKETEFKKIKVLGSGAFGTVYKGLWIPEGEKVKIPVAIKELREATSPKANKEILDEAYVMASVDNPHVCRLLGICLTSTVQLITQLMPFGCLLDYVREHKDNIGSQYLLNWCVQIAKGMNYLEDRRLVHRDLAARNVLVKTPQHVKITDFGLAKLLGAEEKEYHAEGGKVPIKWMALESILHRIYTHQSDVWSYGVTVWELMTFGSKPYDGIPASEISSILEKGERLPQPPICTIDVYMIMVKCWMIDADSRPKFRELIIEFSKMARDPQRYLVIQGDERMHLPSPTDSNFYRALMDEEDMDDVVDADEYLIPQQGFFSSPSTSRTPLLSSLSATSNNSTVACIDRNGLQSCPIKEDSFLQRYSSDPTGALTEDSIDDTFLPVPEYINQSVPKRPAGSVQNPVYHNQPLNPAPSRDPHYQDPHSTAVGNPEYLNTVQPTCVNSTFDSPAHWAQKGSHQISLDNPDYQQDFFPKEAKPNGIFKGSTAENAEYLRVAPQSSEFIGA

SMILES: COc1cc2ncnc(NC(=O)Nc3ccccc3)c2cc1OC [1-(6,7-dimethoxyquinazolin-4-yl)-3-phenylurea]
- EGF RTK inhibition: inactive
